# Data reported in patent publication US20250275968A1, “INHIBITORS OF TAU PROTEINS” (DEUTSCHES ZENTRUM FÜR NEURODEGENERATIVE ERKRANKUNGEN E.V., priority 2022, published 2025).
# Structures can show the parent of a compound that is named as a salt.
# Assays:
# Full-length 2N4R tau = target: T1, Full-length 2N4R tau (Homo sapiens, UniProt P10636); assay: MS/MS analysis of compound adduct in tau; assay type: binding; conditions: 1:5 mole ratio tau:compound, overnight at 37° C.
# T1 construct: Full-length 2N4R tau was incubated with Osimertinib mesylate
# Procedure: Compounds (330 μM) were incubated with 2N4R Tau (65 μM) in buffer (25 mM HEPES, 10 mM KCl, 5 mM MgCl2, pH 7.2) for 16 h at 37° C. then stored at 4° C. until in-gel digestion.
# In-gel digestion using trypsin (Sigma Aldrich) followed by extraction of peptides for mass spectrometry were performed as described previously (Reference: Shevchenko, A., Tomas, H., Havlis, J., Olsen, J. V., and Mann, M. (2006). In-gel digestion for mass spectrometric characterization of proteins and proteomes. Nature protocols 1, 2856-2860). Extracted peptides were resuspended in 2% acetonitrile and 0.05% TFA and analyzed using a Orbitrap Exploris 480 Mass Spectrometer (Thermo Fisher). The mass spectrometer used an emitter voltage at […] and ion transfer tube temperature at 300° C. Full scans were recorded in the range 350 to 1600 m/z with a mass resolution of 15000. Peptides were fragmented in the collision cell with a 28% energy setting. Tandem mass spectra were acquired using Scan Range Mode “Define First Mass” and isolation window of 1.6 m/z with a mass resolution of 15000.
# 2N4R tau^C291S,C322S = 2N4R tau^C291S,C322S (Homo sapiens, UniProt P10636, C608S/C639S); assay: In vitro seeded aggregation assay of cysteine-free tau mutant (ThT fluorescence); assay type: biochemical; conditions: mole ratios 1:3 and 1:10
# Procedure: (§1) Seeded aggregation assays were performed as described above but with 1.0% of the well volume occupied by the seeding mixture sonicated for 1 minute. The assays were performed in the presence and absence of compounds, and working concentrations ranged from 0-250 μM compound. Analyses of the fluorescence curves were performed using Graphpad PRISM version 8. Fluorescence data were fit to a sigmoid function. The number of hours corresponding to half-maximal ThT FluorescenceTM as well as the span of fluorescence intensity (Span) were determined for each sigmoid curve. Statistically significant differences were determined by one-way ANOVA analysis with Dunnett's multiple comparison test or unpaired t-test. The described seeded aggregation protocol was likewise applied to 3R Tau and the […]/[…] mutant of 2N4R Tau.
# 3R tau (tau^3R) = assay: In vitro seeded aggregation assay of 3R tau (ThT fluorescence); assay type: biochemical; conditions: mole ratios 1:3 and 1:10
# Procedure: as §1
# 2N4R tau = assay: In vitro seeded aggregation/fibrillization assay of 2N4R tau (ThT fluorescence); assay type: biochemical; conditions: tau:compound mole ratios 1:3 and 1:10
# Procedure: Aggregation of 2N4R Tau was performed using a previously published co-factor-free aggregation protocol, with a few modifications (Reference: Chakraborty, P. et al. Co-factor-free aggregation of tau into seeding-competent RNA-sequestering amyloid fibrils. Nat. Commun. 12, 4231 (2021)). Aggregation experiments used the Tau protein stock prepared in 25 mM HEPES pH 7.4, 1 mM TCEP. Stocks of compounds were prepared in aggregation buffer (25 mM HEPES, 10 mM KCl, 5 mM MgCl2, pH 7.2) or in DMSO (10 mM compound).
# To prepare the Tau fibril seeds by de novo aggregation, 2N4R Tau at a monomer concentration of 25 μM was diluted in aggregation buffer. The working concentration of TCEP in the aggregation mixture was <25 μM after dilution of the stock. To this mixture, Thioflavin T (ThT) was added to a final concentration of 50 μM. A total volume of 100 μL of the Tau-ThT mixture was incubated in a well of a 96-well microplate (Greiner Bio-one), in the presence of two polytetrafluoroethylene beads. The microplate was subjected to a program implemented in a Tecan Spark plate reader that involved incubating at 37° C., with intervals of double orbital shaking and ThT fluorescence emission measurement. The excitation wavelength for ThT was set as 430 nm and the emission wavelength was 485 nm. Details of this plate reader program were published previously (Reference: Chakraborty, P. et al. Co-factor-free aggregation of tau into seeding-competent RNA-sequestering amyloid fibrils. Nat. Commun. 12, 4231 (2021)). […] The fibril-containing mixture collected from the microplate served as a seeding mixture for the subsequent aggregation assays.
# Seeded aggregation assays were performed as described above but with 1.0% of the well volume occupied by the seeding mixture sonicated for 1 minute. The assays were performed in the presence and absence of compounds, and working concentrations ranged from 0-250 μM compound.
# Analyses of the fluorescence curves were performed using Graphpad PRISM version 8. Fluorescence data were fit to a sigmoid function. The number of hours corresponding to half-maximal ThT Fluorescence™ as well as the span of fluorescence intensity (Span) were determined for each sigmoid curve. Statistically significant differences were determined by one-way ANOVA analysis with Dunnett's multiple comparison test or unpaired t-test.
# Solubility in water = assay type: physicochemical; conditions: without cosolvents or counterions
# Chain of 2N4R tau^C291S,C322S (P10636 1-441 isoform P10636-8 C291S/C322S): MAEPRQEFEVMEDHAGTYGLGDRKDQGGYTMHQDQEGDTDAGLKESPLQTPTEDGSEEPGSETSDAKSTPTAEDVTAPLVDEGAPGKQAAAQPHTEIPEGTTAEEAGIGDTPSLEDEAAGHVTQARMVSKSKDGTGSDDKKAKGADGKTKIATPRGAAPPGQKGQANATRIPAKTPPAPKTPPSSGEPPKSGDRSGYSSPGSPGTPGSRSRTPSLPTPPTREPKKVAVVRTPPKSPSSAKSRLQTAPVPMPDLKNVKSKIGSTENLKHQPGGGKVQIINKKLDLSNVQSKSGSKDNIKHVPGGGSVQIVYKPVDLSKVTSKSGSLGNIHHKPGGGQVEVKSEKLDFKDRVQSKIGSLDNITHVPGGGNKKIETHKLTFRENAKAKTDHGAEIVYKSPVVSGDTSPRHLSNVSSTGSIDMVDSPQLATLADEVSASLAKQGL
# T1 sequence (P10636 1-441 isoform P10636-8): as the sequence (P10636 1-441 isoform P10636-8 C291S/C322S) above, with S291C, S322C counted along it
tau peptide spectrum matches showing compound-modified cysteine sites (Full-length 2N4R tau),"normalized Span of ThT fluorescence (2N4R tau^C291S,C322S)","normalized Tm (midpoint of aggregation curve) (2N4R tau^C291S,C322S)",solubility in water (Solubility in water),Compound,"covalent modification of C291 and C322 (peptide mass spectra, LC-MS/MS) (Full-length 2N4R tau; tryptic digestion)",normalized Span of ThT fluorescence (3R tau (tau^3R)),normalized Tm (midpoint of aggregation curve) (3R tau (tau^3R)),"inhibition of aggregation of tau^wt and tau^3R compared with cysteine-free tau^C291S,C322S (2N4R tau)"
about 350,not observed,do not show a clear dose-dependence,–,"C=CC(=O)Nc1cc(Nc2nccc(-c3cn(C)c4ccccc34)n2)c(OC)cc1N(C)CCN(C)C [Osimertinib mesylate, N-[2-(2-Dimethylaminoethylmethylamino)-4-methoxy-5-[[4-(1-methylindol-3-yl)pyrimidin-2-yl]amino]phenyl]prop-2-enamide Mesylate Salt]",confirm covalent modification of cysteines in tau,statistically lower normalized Span values,do not show a clear dose-dependence,more effectively inhibits
–,–,–,poor solubility in water,"C=CC(=O)Nc1cc(Nc2nccc(-c3cn(C)c4ccccc34)n2)c(OC)cc1N(C)CCN(C)C [Osimertinib, N-[2-(2-Dimethylaminoethylmethylamino)-4-methoxy-5-[[4-(1-methylindol-3-yl)pyrimidin-2-yl]amino]phenyl]prop-2-enamide]",–,–,–,–
